How the values were obtained:
[1] = target: Ribosomal protein S6 kinase alpha-5 (Homo sapiens) (UniProt O75582); assay: Inhibition of human recombinant MSK1 at 40 nM in presence of ATP by radiometric assay relative to control
[2] = target: Mitogen-activated protein kinase kinase kinase kinase 4 (Homo sapiens) (UniProt O95819); assay: Inhibition of human recombinant HGK at 40 nM related to control ULK1
[3] = target: Myosin light chain kinase 2, skeletal/cardiac muscle (Homo sapiens) (UniProt Q9H1R3); assay: Inhibition of human recombinant skMLCK at 40 nM in presence of ATP by radiometric assay relative to control
[4] = target: T1, Serine/threonine-protein kinase haspin (Homo sapiens) (UniProt Q8TF76); assay: Inhibition of human recombinant Haspin at 40 nM related to control ULK1
T1 sequence (whole entry): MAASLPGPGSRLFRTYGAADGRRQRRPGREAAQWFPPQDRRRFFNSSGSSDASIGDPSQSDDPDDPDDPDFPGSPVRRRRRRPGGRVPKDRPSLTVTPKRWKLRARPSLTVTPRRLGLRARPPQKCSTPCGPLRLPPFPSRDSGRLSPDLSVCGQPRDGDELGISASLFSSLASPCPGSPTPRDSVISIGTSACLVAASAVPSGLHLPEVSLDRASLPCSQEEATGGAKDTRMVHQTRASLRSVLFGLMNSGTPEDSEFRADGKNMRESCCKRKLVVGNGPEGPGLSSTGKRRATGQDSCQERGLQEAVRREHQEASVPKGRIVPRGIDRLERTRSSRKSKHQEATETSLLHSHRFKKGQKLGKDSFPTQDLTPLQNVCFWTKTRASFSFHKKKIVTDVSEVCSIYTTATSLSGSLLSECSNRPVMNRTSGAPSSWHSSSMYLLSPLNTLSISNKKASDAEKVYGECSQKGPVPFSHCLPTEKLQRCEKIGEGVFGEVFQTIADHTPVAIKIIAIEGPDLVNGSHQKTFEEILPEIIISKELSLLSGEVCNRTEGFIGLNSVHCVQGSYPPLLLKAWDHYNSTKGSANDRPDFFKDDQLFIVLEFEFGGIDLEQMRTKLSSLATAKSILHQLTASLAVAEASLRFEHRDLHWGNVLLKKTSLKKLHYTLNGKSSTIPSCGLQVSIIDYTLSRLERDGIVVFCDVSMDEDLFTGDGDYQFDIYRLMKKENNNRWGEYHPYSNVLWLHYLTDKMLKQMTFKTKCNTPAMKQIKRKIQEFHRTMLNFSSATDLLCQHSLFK

[5] = target: Eukaryotic translation initiation factor 2-alpha kinase 1 (Homo sapiens) (UniProt Q9BQI3); assay: Inhibition of human recombinant HRI at 500 nM related to control ULK1
[6] = target: Leucine-rich repeat serine/threonine-protein kinase 2 (Homo sapiens) (UniProt Q5S007); assay: Inhibition of human recombinant LRRK2 at 500 nM in presence of ATP by radiometric assay relative to control
[7] = target: Casein kinase II subunit alpha' (Homo sapiens) (UniProt P19784); assay: Inhibition of human recombinant CK2a2 at 500 nM in presence of ATP by radiometric assay relative to control
[8] = target: Receptor-interacting serine/threonine-protein kinase 2 (Homo sapiens) (UniProt O43353); assay: Inhibition of human recombinant RIPK2 at 500 nM in presence of ATP by radiometric assay relative to control
[9] = target: Serine/threonine-protein kinase pim-3 (Homo sapiens) (UniProt Q86V86); assay: Inhibition of human recombinant PIM3 at 500 nM in presence of ATP by radiometric assay relative to control
[10] = target: T2, Myotonin-protein kinase (Homo sapiens) (UniProt Q09013); assay: Inhibition of human recombinant DMPK1 at 15 nM in presence of ATP by radiometric assay relative to control
T2 sequence (whole entry): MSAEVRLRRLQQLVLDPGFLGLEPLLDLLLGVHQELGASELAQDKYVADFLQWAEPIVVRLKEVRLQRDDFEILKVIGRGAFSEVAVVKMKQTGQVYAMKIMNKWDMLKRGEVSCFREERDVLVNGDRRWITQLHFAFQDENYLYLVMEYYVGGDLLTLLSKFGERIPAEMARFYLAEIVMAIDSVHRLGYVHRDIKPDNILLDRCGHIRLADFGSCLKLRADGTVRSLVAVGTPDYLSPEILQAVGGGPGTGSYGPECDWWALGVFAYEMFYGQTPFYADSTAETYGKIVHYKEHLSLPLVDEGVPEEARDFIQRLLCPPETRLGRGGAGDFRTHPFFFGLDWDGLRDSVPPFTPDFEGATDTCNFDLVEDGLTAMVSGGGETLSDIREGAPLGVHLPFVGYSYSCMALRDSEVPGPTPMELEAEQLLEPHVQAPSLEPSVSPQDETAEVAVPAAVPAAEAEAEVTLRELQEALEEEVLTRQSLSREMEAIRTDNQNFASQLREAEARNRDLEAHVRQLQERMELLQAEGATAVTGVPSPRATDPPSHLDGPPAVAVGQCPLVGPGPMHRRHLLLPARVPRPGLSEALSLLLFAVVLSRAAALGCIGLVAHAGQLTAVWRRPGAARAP

[11] = target: Eukaryotic translation initiation factor 2-alpha kinase 1 (Homo sapiens) (UniProt Q9BQI3); assay: Inhibition of human recombinant HRI at 15 nM related to control ULK1
[12] = target: Cyclin-dependent kinase 9 (Homo sapiens) (UniProt P50750); assay: Inhibition of human recombinant CDK9 at 15 nM in presence of ATP by radiometric assay relative to control
[13] = target: Leucine-rich repeat serine/threonine-protein kinase 2 (Homo sapiens) (UniProt Q5S007); assay: Inhibition of human recombinant LRRK2 at 15 nM related to control ULK1
[14] = target: Serine/threonine-protein kinase tousled-like 2 (Homo sapiens) (UniProt Q86UE8); assay: Inhibition of human recombinant TLK2 at 15 nM related to control ULK1

Leucine-rich repeat serine/threonine-protein kinase 2 (Homo sapiens), sequence (Q5S007 whole entry): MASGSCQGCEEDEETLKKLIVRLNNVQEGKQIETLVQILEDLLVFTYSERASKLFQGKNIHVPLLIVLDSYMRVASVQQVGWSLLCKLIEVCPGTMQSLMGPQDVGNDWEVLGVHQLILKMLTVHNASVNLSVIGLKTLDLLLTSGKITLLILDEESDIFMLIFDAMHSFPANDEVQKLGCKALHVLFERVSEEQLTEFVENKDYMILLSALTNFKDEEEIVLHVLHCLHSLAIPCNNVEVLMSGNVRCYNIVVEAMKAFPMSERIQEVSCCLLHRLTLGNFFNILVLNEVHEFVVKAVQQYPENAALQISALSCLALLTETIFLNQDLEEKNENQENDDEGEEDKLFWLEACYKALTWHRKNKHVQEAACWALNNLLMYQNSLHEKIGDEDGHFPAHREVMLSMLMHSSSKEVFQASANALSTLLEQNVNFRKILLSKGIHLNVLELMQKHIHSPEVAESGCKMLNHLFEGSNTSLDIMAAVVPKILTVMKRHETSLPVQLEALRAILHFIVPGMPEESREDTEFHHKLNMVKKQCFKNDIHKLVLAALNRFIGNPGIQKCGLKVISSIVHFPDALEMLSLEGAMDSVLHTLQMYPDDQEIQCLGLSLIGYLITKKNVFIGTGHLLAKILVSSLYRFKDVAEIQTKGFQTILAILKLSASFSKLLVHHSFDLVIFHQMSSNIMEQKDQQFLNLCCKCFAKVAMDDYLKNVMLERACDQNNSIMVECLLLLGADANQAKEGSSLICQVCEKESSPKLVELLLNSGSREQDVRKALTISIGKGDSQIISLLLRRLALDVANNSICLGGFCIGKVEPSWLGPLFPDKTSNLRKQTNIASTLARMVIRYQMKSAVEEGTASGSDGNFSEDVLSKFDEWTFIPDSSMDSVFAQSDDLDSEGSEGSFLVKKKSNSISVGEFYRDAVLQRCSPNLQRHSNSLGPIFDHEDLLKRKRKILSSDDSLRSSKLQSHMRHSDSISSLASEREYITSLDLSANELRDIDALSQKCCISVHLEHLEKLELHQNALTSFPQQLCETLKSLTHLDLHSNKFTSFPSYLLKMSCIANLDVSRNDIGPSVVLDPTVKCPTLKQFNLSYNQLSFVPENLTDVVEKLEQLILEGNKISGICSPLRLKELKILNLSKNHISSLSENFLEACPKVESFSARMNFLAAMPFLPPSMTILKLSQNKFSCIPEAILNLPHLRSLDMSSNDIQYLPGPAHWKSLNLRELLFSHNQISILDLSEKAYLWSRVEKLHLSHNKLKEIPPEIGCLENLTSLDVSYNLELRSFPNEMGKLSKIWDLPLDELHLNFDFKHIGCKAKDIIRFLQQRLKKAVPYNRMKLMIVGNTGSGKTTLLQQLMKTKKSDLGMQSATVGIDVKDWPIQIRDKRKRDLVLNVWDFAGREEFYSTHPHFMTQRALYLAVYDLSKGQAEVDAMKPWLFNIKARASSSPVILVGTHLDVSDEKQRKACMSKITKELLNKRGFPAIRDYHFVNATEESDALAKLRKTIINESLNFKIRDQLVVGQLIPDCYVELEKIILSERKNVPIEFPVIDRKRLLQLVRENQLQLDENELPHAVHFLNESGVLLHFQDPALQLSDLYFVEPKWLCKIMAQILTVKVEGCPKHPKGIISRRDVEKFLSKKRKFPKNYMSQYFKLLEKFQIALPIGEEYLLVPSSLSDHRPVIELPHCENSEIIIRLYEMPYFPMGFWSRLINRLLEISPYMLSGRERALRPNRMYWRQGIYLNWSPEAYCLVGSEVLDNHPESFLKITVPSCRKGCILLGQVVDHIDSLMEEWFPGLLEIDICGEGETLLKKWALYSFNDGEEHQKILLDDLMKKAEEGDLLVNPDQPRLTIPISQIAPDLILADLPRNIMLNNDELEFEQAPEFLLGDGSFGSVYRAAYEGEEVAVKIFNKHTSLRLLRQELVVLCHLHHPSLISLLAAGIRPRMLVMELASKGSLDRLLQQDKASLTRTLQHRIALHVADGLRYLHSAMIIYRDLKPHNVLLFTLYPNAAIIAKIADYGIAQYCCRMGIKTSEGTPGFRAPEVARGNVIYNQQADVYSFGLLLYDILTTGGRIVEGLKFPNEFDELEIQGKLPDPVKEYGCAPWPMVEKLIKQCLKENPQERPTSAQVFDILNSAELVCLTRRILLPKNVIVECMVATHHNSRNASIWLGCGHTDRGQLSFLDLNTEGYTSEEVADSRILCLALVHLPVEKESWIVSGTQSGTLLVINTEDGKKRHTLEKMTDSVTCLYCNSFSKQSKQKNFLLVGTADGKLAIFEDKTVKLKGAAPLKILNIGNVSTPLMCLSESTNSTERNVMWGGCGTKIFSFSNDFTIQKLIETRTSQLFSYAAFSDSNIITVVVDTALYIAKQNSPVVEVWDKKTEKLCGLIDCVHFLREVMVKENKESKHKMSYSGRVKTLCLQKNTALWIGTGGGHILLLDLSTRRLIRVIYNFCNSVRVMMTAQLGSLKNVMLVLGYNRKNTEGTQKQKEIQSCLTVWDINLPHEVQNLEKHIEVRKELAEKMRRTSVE
Eukaryotic translation initiation factor 2-alpha kinase 1 (Homo sapiens), sequence (Q9BQI3 whole entry): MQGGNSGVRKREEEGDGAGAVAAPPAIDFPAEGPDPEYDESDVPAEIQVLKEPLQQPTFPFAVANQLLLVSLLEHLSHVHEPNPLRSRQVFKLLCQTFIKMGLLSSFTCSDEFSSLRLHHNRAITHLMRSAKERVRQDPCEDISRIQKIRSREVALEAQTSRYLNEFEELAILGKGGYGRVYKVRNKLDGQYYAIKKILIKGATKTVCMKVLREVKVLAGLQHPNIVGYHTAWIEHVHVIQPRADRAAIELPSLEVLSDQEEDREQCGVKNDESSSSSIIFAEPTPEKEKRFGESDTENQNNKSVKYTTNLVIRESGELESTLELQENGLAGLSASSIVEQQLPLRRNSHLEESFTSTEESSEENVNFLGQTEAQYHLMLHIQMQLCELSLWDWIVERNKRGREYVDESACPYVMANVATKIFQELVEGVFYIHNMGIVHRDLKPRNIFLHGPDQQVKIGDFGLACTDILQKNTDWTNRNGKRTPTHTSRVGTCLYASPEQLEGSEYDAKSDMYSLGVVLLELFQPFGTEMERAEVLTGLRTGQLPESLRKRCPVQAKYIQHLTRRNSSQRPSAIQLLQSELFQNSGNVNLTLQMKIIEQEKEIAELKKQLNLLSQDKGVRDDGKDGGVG
Mitogen-activated protein kinase kinase kinase kinase 4 (Homo sapiens), sequence (O95819 2-1239 limits assumed): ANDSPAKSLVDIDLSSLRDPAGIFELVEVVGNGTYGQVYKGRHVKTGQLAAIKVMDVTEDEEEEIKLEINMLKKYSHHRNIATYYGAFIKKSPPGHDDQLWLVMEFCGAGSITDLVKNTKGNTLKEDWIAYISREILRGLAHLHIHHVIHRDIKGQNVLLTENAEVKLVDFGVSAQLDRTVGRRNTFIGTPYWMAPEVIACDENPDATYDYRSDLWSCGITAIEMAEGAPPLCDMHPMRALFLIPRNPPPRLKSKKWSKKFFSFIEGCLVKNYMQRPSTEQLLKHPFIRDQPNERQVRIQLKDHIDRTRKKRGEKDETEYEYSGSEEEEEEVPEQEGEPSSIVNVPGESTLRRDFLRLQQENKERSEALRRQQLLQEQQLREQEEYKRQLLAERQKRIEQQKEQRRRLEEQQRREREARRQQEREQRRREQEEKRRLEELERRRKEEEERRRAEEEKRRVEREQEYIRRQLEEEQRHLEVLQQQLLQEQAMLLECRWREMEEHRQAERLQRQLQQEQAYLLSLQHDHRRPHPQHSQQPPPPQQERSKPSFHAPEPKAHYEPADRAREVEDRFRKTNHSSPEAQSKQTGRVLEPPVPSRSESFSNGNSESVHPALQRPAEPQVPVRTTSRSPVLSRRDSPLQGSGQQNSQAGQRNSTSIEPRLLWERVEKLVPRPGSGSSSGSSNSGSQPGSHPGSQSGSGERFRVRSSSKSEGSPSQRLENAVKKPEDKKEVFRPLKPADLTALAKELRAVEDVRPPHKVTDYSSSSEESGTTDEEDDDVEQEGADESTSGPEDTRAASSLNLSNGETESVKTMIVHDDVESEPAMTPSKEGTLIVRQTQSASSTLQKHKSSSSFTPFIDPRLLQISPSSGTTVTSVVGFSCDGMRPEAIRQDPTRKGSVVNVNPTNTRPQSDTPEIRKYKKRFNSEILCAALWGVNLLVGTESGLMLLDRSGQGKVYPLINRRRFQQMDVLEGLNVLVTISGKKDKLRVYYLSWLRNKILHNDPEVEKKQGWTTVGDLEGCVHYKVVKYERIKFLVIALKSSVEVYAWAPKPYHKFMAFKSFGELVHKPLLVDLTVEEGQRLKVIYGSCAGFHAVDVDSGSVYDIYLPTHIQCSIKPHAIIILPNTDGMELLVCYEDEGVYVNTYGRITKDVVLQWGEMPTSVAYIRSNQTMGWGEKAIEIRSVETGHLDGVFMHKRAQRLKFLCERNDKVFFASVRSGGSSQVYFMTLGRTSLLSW
Myosin light chain kinase 2, skeletal/cardiac muscle (Homo sapiens), sequence (Q9H1R3 whole entry): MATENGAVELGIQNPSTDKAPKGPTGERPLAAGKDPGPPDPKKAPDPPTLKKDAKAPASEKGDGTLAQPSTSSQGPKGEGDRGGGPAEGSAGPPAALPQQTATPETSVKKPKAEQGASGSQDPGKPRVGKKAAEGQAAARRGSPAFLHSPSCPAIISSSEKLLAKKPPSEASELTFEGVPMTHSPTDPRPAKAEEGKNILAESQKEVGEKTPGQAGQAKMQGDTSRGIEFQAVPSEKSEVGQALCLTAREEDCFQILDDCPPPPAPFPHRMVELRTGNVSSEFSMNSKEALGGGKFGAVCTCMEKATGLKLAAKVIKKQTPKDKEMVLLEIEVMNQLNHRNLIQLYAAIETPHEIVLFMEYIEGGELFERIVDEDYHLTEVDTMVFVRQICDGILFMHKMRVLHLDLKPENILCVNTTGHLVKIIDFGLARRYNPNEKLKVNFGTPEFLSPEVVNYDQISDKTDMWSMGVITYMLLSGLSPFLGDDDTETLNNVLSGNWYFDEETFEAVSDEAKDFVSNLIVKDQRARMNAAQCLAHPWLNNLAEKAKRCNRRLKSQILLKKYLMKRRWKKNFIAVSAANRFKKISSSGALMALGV

Molecule `O=C(N[C@@H](C1CC1)C(F)(F)F)c1cc(-c2cnn3cc(-c4ccc(F)cc4)cnc23)cs1` has an inhibition [1] of 0%, a fold change (FC) [2] of 0 and an inhibition [3] of 0%. For the same molecule, the fold change (FC) [4] was 0.01.

`CNC(=O)c1ccccc1Oc1nc(Nc2cc(OC)c(OC)c(OC)c2)ncc1Br` gave a fold change (FC) [5] of 0, an inhibition [6] of 35% and an inhibition [7] of 5%. It also gave an inhibition [8] of 0% and an inhibition [9] of 0%.

`CC(C)[C@H](NC(=O)c1cc(-c2cnn3cc(-c4ccc(OCCN5CCCCC5)cc4)cnc23)cs1)C(F)(F)F` was tested, and the inhibition [10] was 0%, the fold change (FC) [11] was 0 and the inhibition [12] was 0%. It also gave a fold change (FC) [13] of 0.03 and a fold change (FC) [14] of 0.03.

Source: ChEMBL document CHEMBL5653631, “A Potent and Selective ULK1 Inhibitor Suppresses Autophagy and Sensitizes Cancer Cells to Nutrient Stress” (iScience, 2018)
